Assay results: US20240239772A1, “PROTEASE INHIBITORS AND METHODS OF USE” (The Cleveland Clinic Foundation, priority 2021, published 2024)

target: SARS-CoV-2 3CLpro (Severe acute respiratory syndrome coronavirus 2 (2019-nCoV) (SARS-CoV-2), UniProt P0DTD1); test: biochemical; format: biochemical; settings: read-out: SARS-CoV-2 IC50

| Structure (SMILES) | IC50 [µM] |
| --- | --- |
| NC(=O)Cc1ccc(N(Cc2cc(F)cc(F)c2)C(=O)Cn2nnc3ccccc32)cc1 [Compound 94, 2-[4-[[2-(benzotriazol-1-yl)acetyl]-[(3,5-difluorophenyl)methyl]amino]phenyl]acetamide] | 0.67 |
| O=C(Cn1nnc2ccccc21)N(Cc1ccnc(C(F)(F)F)c1)c1ccc(-c2c[nH]cn2)cc1 [Compound 95, 2-(benzotriazol-1-yl)-N-[4-(1H-imidazol-4-yl)phenyl]-N-[[2-(trifluoromethyl)-4-pyridyl]methyl]acetamide] | 2.9 |
| O=C(Cn1nnc2ccccc21)N(Cc1cncc(C(F)(F)F)c1)c1ccc(-c2c[nH]cn2)cc1 [Compound 96, 2-(benzotriazol-1-yl)-N-[4-(1H-imidazol-4-yl)phenyl]-N-[[5-(trifluoromethyl)-3-pyridyl]methyl]acetamide] | 0.35 |
| O=C(Cn1nnc2ccccc21)N(Cc1cncc(F)c1)c1ccc(-c2c[nH]cn2)cc1 [Compound 97, 2-(benzotriazol-1-yl)-N-[(5-fluoro-3-pyridyl)methyl]-N-[4-(1H-imidazol-4-yl)phenyl]acetamide] | 0.13 |
| O=C(Cn1nnc2ccccc21)N(Cc1c(F)cccc1F)c1ccc(-c2c[nH]cn2)cc1 [Compound 98, 2-(benzotriazol-1-yl)-N-[(2,6-difluorophenyl)methyl]-N-[4-(1H-imidazol-4-yl)phenyl]acetamide] | 0.98 |
| O=C(Cn1nnc2ccccc21)N(Cc1cc(F)cc(F)c1)c1ccc(CCO)cc1 [Compound 99, 2-(benzotriazol-1-yl)-N-[(3,5-difluorophenyl)methyl]-N-[4-(2-hydroxyethyl)phenyl]acetamide] | 0.46 |
| O=C(Cn1nnc2ccccc21)N(Cc1cc(F)cc(F)c1)c1ccc(-c2ncc[nH]2)cc1 [Compound 100, 2-(benzotriazol-1-yl)-N-[(3,5-difluorophenyl)methyl]-N-[4-(1H-imidazol-2-yl)phenyl]acetamide] | 0.34 |
| O=C1CNCCN1c1ccc(N(Cc2cc(F)cc(F)c2)C(=O)Cn2nnc3ccccc32)cc1 [Compound 101, 2-(benzotriazol-1-yl)-N-[(3,5-difluorophenyl)methyl]-N-[4-(2-oxopiperazin-1-yl)phenyl]acetamide] | 3.4 |
| N#Cc1ccc(N(Cc2cc(F)cc(F)c2)C(=O)Cn2nnc3ccccc32)cc1 [Compound 102, 2-(benzotriazol-1-yl)-N-(4-cyanophenyl)-N-[(3,5-difluorophenyl)methyl]acetamide] | 4.7 |
| O=C(Cn1nnc2ccccc21)N(Cc1ccc(F)cn1)c1ccc(-c2c[nH]cn2)cc1 [Compound 103, 2-(benzotriazol-1-yl)-N-[(5-fluoro-2-pyridyl)methyl]-N-[4-(1H-imidazol-4-yl)phenyl]acetamide] | 9.5 |
| Cc1nc(-c2ccc(N(Cc3cc(F)cc(F)c3)C(=O)Cn3nnc4ccccc43)cc2)c[nH]1 [Compound 104, 2-(benzotriazol-1-yl)-N-[(3,5-difluorophenyl)methyl]-N-[4-(2-methyl-1H-imidazol-4-yl)phenyl]acetamide] | 0.17 |
| O=C(Cn1nnc2ccccc21)N(Cc1cc(F)cc(F)c1)c1ccc(-c2c[nH]nn2)cc1 [Compound 105, 2-(benzotriazol-1-yl)-N-[(3,5-difluorophenyl)methyl]-N-[4-(1H-triazol-4-yl)phenyl]acetamide] | 0.18 |
| O=C(Cn1nnc2ccccc21)N(Cc1cc(F)cc(F)c1)c1ccc(-c2nnc[nH]2)cc1 [Compound 106, 2-(benzotriazol-1-yl)-N-[(3,5-difluorophenyl)methyl]-N-[4-(4H-1,2,4-triazol-3-yl)phenyl]acetamide] | 0.94 |
| NCCc1ccc(N(Cc2cc(F)cc(F)c2)C(=O)Cn2nnc3ccccc32)cc1 [Compound 107, N-[4-(2-aminoethyl)phenyl]-2-(benzotriazol-1-yl)-N-[(3,5-difluorophenyl)methyl]acetamide] | 0.43 |
| O=C(Cn1nnc2ccccc21)N(Cc1cc(F)cc(F)c1)c1ccc(C2CCNC2)cc1 (stereo not drawn) [Compound 108, 2-(benzotriazol-1-yl)-N-[(3,5-difluorophenyl)methyl]-N-(4-pyrrolidin-3-ylphenyl)acetamide] | 0.21 |
| O=C1C=C(c2ccc(N(Cc3cc(F)cc(F)c3)C(=O)Cn3nnc4ccccc43)cc2)CN1 [Compound 109, 2-(benzotriazol-1-yl)-N-[(3,5-difluorophenyl)methyl]-N-[4-(5-oxo-1,2-dihydropyrrol-3-yl)phenyl]acetamide] | 0.34 |
| COc1ccc(F)cc1CN(C(=O)Cn1nnc2ccccc21)c1ccc(-c2c[nH]cn2)cc1 [Compound 110, 2-(benzotriazol-1-yl)-N-[(5-fluoro-2-methoxy-phenyl)methyl]-N-[4-(1H-imidazol-4-yl)phenyl]acetamide] | 0.2 |
| COc1cc(F)cc(CN(C(=O)Cn2nnc3ccccc32)c2ccc(-c3c[nH]cn3)cc2)c1 [Compound 111, 2-(benzotriazol-1-yl)-N-[(3-fluoro-5-methoxy-phenyl)methyl]-N-[4-(1H-imidazol-4-yl)phenyl]acetamide] | 0.069 |
| O=C(Cn1ccnn1)N(Cc1cc(F)cc(Cl)c1)c1ccc(-c2c[nH]cn2)cc1 [Compound 112, N-[(3-chloro-5-fluoro-phenyl)methyl]-N-[4-(1H-imidazol-4-yl)phenyl]-2-(triazol-1-yl)acetamide] | 0.41 |
| O=C(Cn1ccnn1)N(Cc1cccc(Cl)c1)c1ccc(-c2cn[nH]c2)cc1 [Compound 113, N-[(3-chlorophenyl)methyl]-N-[4-(1H-pyrazol-4-yl)phenyl]-2-(triazol-1-yl)acetamide] | 8.2 |
| CC(C)(C)CN(C(=O)Cn1nnc2ccccc21)c1ccc(-c2c[nH]cn2)cc1 [Compound 114, 2-(benzotriazol-1-yl)-N-(2,2-dimethylpropyl)-N-[4-(1H-imidazol-4-yl)phenyl]acetamide] | 1.6 |
| O=C1CC(c2ccc(N(Cc3cc(F)cc(F)c3)C(=O)Cn3nnc4ccccc43)cc2)CN1 (stereo not drawn) [Compound 115, 2-(benzotriazol-1-yl)-N-[(3,5-difluorophenyl)methyl]-N-[4-(5-oxopyrrolidin-3-yl)phenyl]acetamide] | 0.24 |
| O=C(Cn1nnc2ccccc21)N(Cc1ccc(Cl)c(F)c1)c1ccc(-c2c[nH]cn2)cc1 [Compound 116, 2-(benzotriazol-1-yl)-N-[(4-chloro-3-fluoro-phenyl)methyl]-N-[4-(1H-imidazol-4-yl)phenyl]acetamide] | 2.5 |
| COc1ccc(CN(C(=O)Cn2nnc3ccccc32)c2ccc(-c3c[nH]cn3)cc2)cc1F [Compound 117, 2-(benzotriazol-1-yl)-N-[(3-fluoro-4-methoxy-phenyl)methyl]-N-[4-(1H-imidazol-4-yl)phenyl]acetamide] | 0.97 |
| O=C(Cn1nnc2ccccc21)N(Cc1cc(F)cc(F)c1)c1ccc(C2CNC2)cc1 [Compound 118, N-[4-(azetidin-3-yl)phenyl]-2-(benzotriazol-1-yl)-N-[(3,5-difluorophenyl)methyl]acetamide] | 0.078 |
| O=C(Cn1nnc2ccccc21)N(Cc1cncc(F)c1)c1ccc(C2CNC2)cc1 [Compound 119, N-[4-(azetidin-3-yl)phenyl]-2-(benzotriazol-1-yl)-N-[(5-fluoro-3-pyridyl)methyl]acetamide] | 0.6 |
| O=C(Cn1nnc2ccccc21)N(Cc1cc(F)cc(OC(F)(F)F)c1)c1ccc(-c2c[nH]cn2)cc1 [Compound 120, 2-(benzotriazol-1-yl)-N-[[3-fluoro-5-(trifluoromethoxy)phenyl]methyl]-N-[4-(1H-imidazol-4-yl)phenyl]acetamide] | 0.12 |
